Here are results for 4 substances from paper PMC2859821 (Molecular pharmaceutics, 2009).

For data set [1] the following is noted: statement in abstract; no data in this paper; cited from earlier work.
Another data set deals with three types of cells. Particulars: cited from earlier work.
For another data set, the system named is HeLa cells. Particulars: 100 nM nocodazole 16 h, 10 μM, 40 min; in contrast to interphase cells.

With “5(6)-Carboxyfluorescein-R.I.-CKTat9 [Flu-R.I.-CKTat9]”, the “cell surface-bound amount at 0 °C in KPBS versus PBS” value in the data set on HeLa cell surface was “no difference”.
With “Acetyl-dC-dK-dR-dR-dR-dQ-dR-dR-dK-dK-dR-CONH2 [R.I.-CKTat9]”, the proteolytic stability result in data set [1] is reported as “proteolytically stable”.
As for polyarginine, the “reduction of cell-associated fluorescence by high potassium buffer” value in the data set with three types of cells is recorded as “more than 90%”.
For the substance rhodamine-R.I.-CKTat9 [Rho-R.I.-CKTat9], the “uptake by HeLa cells arrested in M phase (microscopy)” value in the data set with HeLa cells is reported as “did not take up”.
